US5100876A, “16-decarboxy-16-hydroxy derivatives of amphotericin B” (Beecham Group p.l.c., priority 1988, dated 1992)
≈ marks a conversion by molar mass, not a printed value.

Experiments:
[1] = system: Candida parapsilosis 937 A; experiment: Minimum Inhibitory Concentration (MIC) by broth dilution in microtitre tray; type: cell-based; settings: inoculum 10^5 cells/ml, 37° C.
Procedure: (§1) The Minimum Inhibitory Concentration (MIC) was determined by diluting the test compound in a broth medium in a microtitre tray. The organisms, which had been grown previously in a broth medium, were diluted and added to the wells to provide a final inoculum of approximately 10^5 colony-formingunits per well. The trays were incubated at 37° C. and the turbidity of each well noted at intervals. The MIC was taken as the lowest concentration (in μg/ml) which prevented significant growth. |Minimum Inhibitory Concentration (μg/ml) |(determined after 2 and 3 days incubation) | *Inoculum 10^5 cells/ml | YNB: Yeast Nitrogen Base Broth | SAB: Sabouraud's Dextrose Broth.

[2] = system: Candida albicans 73/079; experiment: as above; type: cell-based; settings: inoculum 10^5 cells/ml, 37° C.
Procedure: as §1

[3] = 48 h, day 2, YNB (Yeast Nitrogen Base Broth)
[4] = 72 h, day 3, YNB (Yeast Nitrogen Base Broth)

MIC ([1]; 937A, 48 h, day 2, SAB (Sabouraud's Dextrose Broth)): 1 µg/mL (≈ 1.1 µM)
MIC ([1]; 937A, 72 h, day 3, SAB (Sabouraud's Dextrose Broth)): 2 µg/mL (≈ 2.2 µM)
MIC [1, 3]: 8 µg/mL (≈ 8.79 µM)
MIC [1, 4]: 8 µg/mL (≈ 8.79 µM)
MIC [2, 3]: 1 µg/mL (≈ 1.1 µM)
MIC [2, 4]: 2 µg/mL (≈ 2.2 µM)
MIC ([2]; Candida albicans, 73/079, 48 h, day 2, SAB (Sabouraud's Dextrose Broth)): 1 µg/mL (≈ 1.1 µM)
MIC ([2]; Candida albicans, 73/079, 72 h, day 3, SAB (Sabouraud's Dextrose Broth)): 1 µg/mL (≈ 1.1 µM)
Structure (SMILES): C[C@@H]1[C@H](O)[C@@H](C)/C=C/C=C/C=C/C=C/C=C/C=C/C=C/[C@H](O[C@@H]2O[C@H](C)[C@@H](O)[C@H](N)[C@@H]2O)C[C@@H]2O[C@](O)(C[C@@H](O)C[C@@H](O)[C@H](O)CC[C@@H](O)C[C@@H](O)CC(=O)O[C@H]1C)C[C@H](O)[C@H]2CO [Example 4, 16-Decarboxy-16-hydroxymethylamohotericin B]
